Assay: rilpivirine particle size by wet dispersion laser diffraction
Type: physicochemical
Details: rilpivirine nanoparticles used for the aqueous compositions of Example 5
Protocol: The compositions were freeze dried and reconstituted with water to provide 9 mL of the reconstituted aqueous composition at time t=0, freeze dried and reconstituted with water to provide 9 mL of the reconstituted aqueous composition after being stored under conditions of 25° C./60% RH and 40° C./75% RH for 1 month, and freeze dried and reconstituted with water to provide 9 mL of the reconstituted aqueous composition after being stored under conditions of 25° C./60% RH for 6 months. The rilpivirine particle sizes were measured in both instances following the method below.
The volume-based particle size distribution of the rilpivirine suspensions was determined by means of wet dispersion laser diffraction, using a Malvern Mastersizer 3000 laser diffraction (Malvern Instruments) and Hydro MV wet dispersion module.

Dv10: about 96.5 nm
Dv50: about 224 nm
Dv90: about 509 nm
SMILES: Cc1cc(/C=C/C#N)cc(C)c1Nc1ccnc(Nc2ccc(C#N)cc2)n1 [rilpivirine nanoparticles, 4-[[4-[[4-[(1E)-2-cyanoethenyl]-2,6-dimethylphenyl]amino]-2-pyrimidinyl]amino]-benzonitrile]

From US20250275967A1, “FREEZE DRIED COMPOSITIONS” (Janssen Sciences Ireland Unlimited Company, priority 2022, published 2025)
